For test [1], the system named is isolated rat hearts subjected to global ischemia. In words: Isolated working rat heart, global no flow ischemia and reperfusion: cardiac function and efficiency. The conditions noted are these: post-ischemic reperfusion, DCA 2 mM, digoxin 3 nM, metoprolol 1 μM. As to the method:
(§1) Hearts were trimmed of excess tissue, and the pulmonary artery and the opening to the left atrium were then cannulated. After 15 min of Langendorff perfusion, hearts were switched to the working mode by clamping the aortic inflow line from the Langendorff reservoir and opening the left atrial inflow line. The perfusate was delivered from an oxygenator into the left atrium at a constant preload pressure of 11 mm Hg. […] The afterload was set at a hydrostatic pressure of 80 mm Hg. […] Palmitate was bound to the albumin as described previously ([…]., et al. J Biol. Chem. 267:3825-3831 (1992)). […] For the aerobic model hearts, all tested compounds were introduced into the heart 5 minutes into the working mode following Langendorff Perfusion. Spontaneously beating hearts were used in all perfusions. Heart rate and aortic pressure were measured with a Biopac Systems Inc. blood pressure transducer connected to the aortic outflow line. Cardiac output and aortic flow were measured with Transonic […] ultrasonic flow probes in the preload and afterload lines, respectively. Coronary flow was calculated as the difference between cardiac output and aortic flow. […] Cardiac work was calculated as the product of systolic pressure and cardiac output. Cardiac efficiency was defined as a ratio of cardiac work to MVO2. […] All tested compounds were introduced into the perfusate five minutes prior to reperfusion.

In test [2] the test system is isolated rat hearts. In words: Isolated working rat heart, aerobic perfusion: cardiac function and efficiency. Also on record: Cardiac Work (CO · PSP): unit not given beside the values. The settings on record: for Aortic Outflow / Cardiac Efficiency (CW · O2^−1) / Cardiac Output / Cardiac Work (CO · PSP) / Coronary Flow / HR × PSP / Heart Rate / O2 Consumption / Peak Systolic Pressure: aerobically perfused, DCA 2 mM, diltiazem 0.8 μM, digoxin 3 nM, metoprolol 1 μM, dobutamine 1 μM; for effect on functional parameters shown in Table 2 incl. O2 consumption and cardiac efficiency, in words: compared to control. Here is the method: (§2) Rat hearts were cannulated for isolated working heart perfusions as described in “An imbalance between glycolysis and glucose oxidation is a possible explanation for the detrimental effects of high levels of fatty acids during aerobic reperfusion of ischemic hearts.”, (J Pharmacol Exp Ther. 264:135 (1993); herein incorporated by reference. In brief, male Sprague-Dawley rats (0.3-0.35 kg) were anesthetized with pentobarbital sodium (60 mg/kg IP) and hearts were quickly excised, the aorta was cannulated and a retrograde perfusion at 37° C. was initiated at a hydrostatic pressure of 60 mm Hg. Hearts were trimmed of excess tissue, and the pulmonary artery and the opening to the left atrium were then cannulated. After 15 min of Langendorff perfusion, hearts were switched to the working mode by clamping the aortic inflow line from the Langendorff reservoir and opening the left atrial inflow line. The perfusate was delivered from an oxygenator into the left atrium at a constant preload pressure of 11 mm Hg. Perfusate was ejected from spontaneously beating hearts into a compliance chamber (containing 1 ml of air) and into the aortic outflow line. The afterload was set at a hydrostatic pressure of 80 mm Hg. All working hearts were perfused with Krebs'-Henseleit solution containing calcium 2.5 mmol/L, glucose 5.5 mmol/L, 3% bovine serum albumin (Fraction V, Boehringer Mannheim), and with 1.2 mmol/L palmitate. Palmitate was bound to the albumin as described previously (Saddik M., et al. J Biol. Chem. 267:3825-3831 (1992)). The perfusate was recirculated, and pH was adjusted to 7.4 by bubbling with a mixture containing 95% O2 and 5% CO2. For the aerobic model hearts, all tested compounds were introduced into the heart 5 minutes into the working mode following Langendorff Perfusion.
Spontaneously beating hearts were used in all perfusions. Heart rate and aortic pressure were measured with a Biopac Systems Inc. blood pressure transducer connected to the aortic outflow line. Cardiac output and aortic flow were measured with Transonic T206 ultrasonic flow probes in the preload and afterload lines, respectively. Coronary flow was calculated as the difference between cardiac output and aortic flow. The O2 contents of the perfusate entering and leaving the heart were measured using YSI™ micro oxygen electrodes placed in the preload and pulmonary arterial lines, respectively. Myocardial O2 consumption (MVO2) was calculated according to the Fick principle, using coronary flow rates and the arteriovenous difference in perfusate O2 concentration. Cardiac work was calculated as the product of systolic pressure and cardiac output. Cardiac efficiency was defined as a ratio of cardiac work to MVO2.

For test [3], the system named is isolated rat hearts. In words: Isolated working rat heart, aerobic perfusion: glycolysis and glucose oxidation. More on the design: glycolytic rates (glycolysis) / glucose oxidation rates: unit not given here. The settings on record: for glucose oxidation rates / glycolytic rates (glycolysis): normal hearts, aerobic, DCA 2 mM, digoxin 3 nM, diltiazem 0.8 μM, dobutamine 1 μM, metoprolol 1 μM; for glucose oxidation rates: FIG. 1, 3, 5, 7, control 361±43; for glycolytic rates (glycolysis): FIG. 2, 4, 6, 8, control 3.430±0.604. As to the method:
as §2
Glycolysis and glucose oxidation were measured simultaneously by perfusing hearts with [5-^3H/U-^14C] glucose (Liu H., et al. Am J Physiol. 270:H72-H80 (1996); Taegtmeyer Het al. Am J Cardiol. 80:3A-10A (1997)). The total myocardial ^3H2O production and ^14CO2 production were determined at 10 minute intervals for the entirety of the aerobic period, 60 minutes for normal hearts and 30 minutes for the global ischemia and low flow demand ischemia models. In the global ischemia model, the total myocardial ^3H2O and ^14CO2 production were determined at 20 minute intervals for the 60 minute reperfusion period. In the low flow demand ischemia model, the total myocardial ^3H2O and ^14CO2 production were determined at 10 minute intervals for the 30 minute reperfusion period. Glucose oxidation rates were determined by quantitative measurement of ^14CO2 production as described previously (Barbour R. L., et al. Biochemistr. 1923:6503-6062 (1984)).

Test [4] concerns isolated rat hearts subjected to low flow demand ischemia. In words: Isolated working rat heart, low flow demand ischemia: cardiac function and efficiency. The conditions noted are these: DCA 2 mM, diltiazem 0.8 μM, metoprolol 1 μM. Here is the method: as §1, with “into initiation of aerobic perfusion.” for “prior to reperfusion.”
The mark [5] stands for this setting: low flow ischemia: aerobic period.
Setting [6] is: low flow ischemia: ischemic period.

Structures are written as SMILES. Several values for one entry are separate records, joined by “and”; a condition that tells them apart may be missing. Identical values can stand only once.

Regarding `O=C(O)C(Cl)Cl` [DCA, dichloroacetate], in test [1], the “Aortic Outflow” value was determined as 14 ± 6 mL/min, the “Cardiac Output” value was found to be 35 ± 5 mL/min, the “Coronary Flow” value was 21 ± 1 mL/min and the “HR × PSP” value is listed as 18 ± 2 beats · min^−1 · mmHg · 10^−2. Also, in test [1], the “Heart Rate” value was determined as 208 ± 11 beats · min^−1 and the “Peak Systolic Pressure” value is on record as 87 ± 9 mmHg. Also, in the test on isolated rat hearts [2], the “Aortic Outflow” value was 30 ± 3 mL/min, the “Cardiac Efficiency (CW · O2^−1)” value stood at 1.69 ± 0.19, the “Cardiac Output” value came out at 49 ± 4 mL/min and the “Cardiac Work (CO · PSP)” value worked out at 61 ± 5. In the test with isolated rat hearts [2], the “Coronary Flow” value was determined as 20 ± 1 mL/min, the “HR × PSP” value is reported as 32 ± 1 beats · min^−1 · mmHg · 10^−2, the “Heart Rate” value was determined as 239 ± 8 beats · min^−1 and the “O2 Consumption” value is 38 ± 5 μmolO2 · g dry wt^−1 · min^−1. The “Peak Systolic Pressure” value with isolated rat hearts [2] is on record as 125 ± 3 mmHg. Further, in the test on isolated rat hearts [2] (normal hearts, aerobic), the “effect on functional parameters shown in Table 2 incl. O2 consumption and cardiac efficiency, in words” value is given as “no effect”. Also, the “effect on functional parameters shown in Table 1 (heart rate, peak systolic pressure, HR×PSP), in words” value in the test with isolated rat hearts [2] (normal hearts, aerobic, compared to control (DCA and dobutamine: compared to dobutamine alone)) is “no significant effect”. In addition, in the test with isolated rat hearts [3] (aerobic model), the “increase in glucose oxidation” value is “over 400%” and the increase in glycolysis entry is listed as “over 300%”. In addition, in the test with isolated rat hearts [3], the glucose oxidation rates is 1697±179 and 1526±79; the “glycolytic rates (glycolysis)” value worked out at 8.917±3.060. In test [4] (setting [5]), the “Aortic Outflow” value was determined as 27 ± 3 mL/min, the “Cardiac Output” value is 50 ± 2 mL/min, the “Coronary Flow” value amounted to 22 ± 1 mL/min and the “HR × PSP” value is given as 30 ± 1 beats · min^−1 · mmHg · 10^−2. Also, in test [4] (setting [5]), the “Heart Rate” value is 214 ± 7 beats · min^−1 and the “Peak Systolic Pressure” value is on record as 139 ± 3 mmHg. In test [4] (setting [6]), the “Aortic Outflow” value is 13 ± 5 mL/min, the “Cardiac Output” value turned out to be 26 ± 5 mL/min, the “Coronary Flow” value was found to be 13 ± 1 mL/min and the “HR × PSP” value was 30 ± 1 beats · min^−1 · mmHg · 10^−2. In addition, in test [4] (setting [6]), the “Heart Rate” value is listed as 214 ± 7 beats · min^−1 and the “Peak Systolic Pressure” value came to 139 ± 3 mmHg.

Regarding `CC(CCc1ccc(O)cc1)NCCc1ccc(O)c(O)c1` (stereo not drawn) [Dobutamine, dobutamine], in the test on isolated rat hearts [2], the “Aortic Outflow” value came out at 32 ± 3 mL/min, the “Cardiac Efficiency (CW · O2^−1)” value worked out at 1.56 ± 0.43, the “Cardiac Output” value turned out to be 52 ± 2 mL/min and the “Cardiac Work (CO · PSP)” value turned out to be 64 ± 5. In addition, in the test on isolated rat hearts [2], the “Coronary Flow” value is 20 ± 4 mL/min, the “HR × PSP” value is listed as 40 ± 2 beats · min^−1 · mmHg · 10^−2, the “Heart Rate” value worked out at 333 ± 7 beats · min^−1 and the “O2 Consumption” value is reported as 44 ± 9 μmolO2 · g dry wt^−1 · min^−1. In the test on isolated rat hearts [2], the “Peak Systolic Pressure” value is on record as 124 ± 3 mmHg. Besides, in the test on isolated rat hearts [2] (listed as dobutamine), the “HR × PSP” value was 40±2 beats · min^−1 · mmHg · 10^−2 and the “Heart Rate” value came to 333±7 beats · min^−1. Besides, the “effect on functional parameters shown in Table 2 incl. O2 consumption and cardiac efficiency, in words” value in the test on isolated rat hearts [2] (normal hearts, aerobic) was “no significant effect”. The “increase in glucose metabolism” value with isolated rat hearts [3] (aerobic model) was ~400%. In the test on isolated rat hearts [3], the glucose oxidation rates came out at 1707±435 and the “glycolytic rates (glycolysis)” value stood at 13.365±1.981.

The record behind these values is patent US20120064056A1, “DICHLORACETATE IN COMBINATION WITH CLINICALLY HIGH LEVELS OF CARDIOPROTECTIVE OR HEMODYNAMIC DRUGS” (THE GOVERNORS OF THE UNIVERSITY OF ALBERTA TEC Edmonton, priority 2002, published 2012).
